According to paper PMC3519909 (PLoS Biology, 2012):

Tests used:
Ima5 = target: T1, Ima5 (Saccharomyces cerevisiae, UniProt P40884); experiment: glucose release, crude extract of IMA5-overexpressing yeast; assay type: biochemical; details: relative to ima5 deletion mutant
T1 construct: crude extract of yeast overexpressing IMA5, compared with ima5 deletion mutant
T1 sequence (P40884 1-581): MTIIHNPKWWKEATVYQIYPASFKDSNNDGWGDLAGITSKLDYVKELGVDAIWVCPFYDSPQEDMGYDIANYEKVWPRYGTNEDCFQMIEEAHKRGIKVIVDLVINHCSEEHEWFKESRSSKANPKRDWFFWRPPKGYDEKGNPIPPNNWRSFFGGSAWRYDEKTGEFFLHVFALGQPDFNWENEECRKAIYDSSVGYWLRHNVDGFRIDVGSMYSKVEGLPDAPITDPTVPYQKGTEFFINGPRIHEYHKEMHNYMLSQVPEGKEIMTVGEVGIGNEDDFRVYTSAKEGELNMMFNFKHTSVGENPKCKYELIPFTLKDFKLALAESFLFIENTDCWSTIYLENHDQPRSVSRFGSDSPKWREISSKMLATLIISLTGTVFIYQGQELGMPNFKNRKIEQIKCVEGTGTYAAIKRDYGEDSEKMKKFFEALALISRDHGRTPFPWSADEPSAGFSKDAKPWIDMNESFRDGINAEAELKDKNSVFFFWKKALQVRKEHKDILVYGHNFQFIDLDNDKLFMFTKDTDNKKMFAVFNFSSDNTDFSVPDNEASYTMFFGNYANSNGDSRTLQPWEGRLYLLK

K. lactis [GI: 50312678] = target: T2, K. lactis [GI: 50312678] (Kluyveromyces lactis, UniProt Q6CSK8); experiment: glucose oxidase/peroxidase coupled glucose release; assay type: biochemical; details: Michaelis-Menten or Hill fit
T2 construct: gene KLLA0_B00242g
T2 sequence (Q6CSK8 entry or part of it): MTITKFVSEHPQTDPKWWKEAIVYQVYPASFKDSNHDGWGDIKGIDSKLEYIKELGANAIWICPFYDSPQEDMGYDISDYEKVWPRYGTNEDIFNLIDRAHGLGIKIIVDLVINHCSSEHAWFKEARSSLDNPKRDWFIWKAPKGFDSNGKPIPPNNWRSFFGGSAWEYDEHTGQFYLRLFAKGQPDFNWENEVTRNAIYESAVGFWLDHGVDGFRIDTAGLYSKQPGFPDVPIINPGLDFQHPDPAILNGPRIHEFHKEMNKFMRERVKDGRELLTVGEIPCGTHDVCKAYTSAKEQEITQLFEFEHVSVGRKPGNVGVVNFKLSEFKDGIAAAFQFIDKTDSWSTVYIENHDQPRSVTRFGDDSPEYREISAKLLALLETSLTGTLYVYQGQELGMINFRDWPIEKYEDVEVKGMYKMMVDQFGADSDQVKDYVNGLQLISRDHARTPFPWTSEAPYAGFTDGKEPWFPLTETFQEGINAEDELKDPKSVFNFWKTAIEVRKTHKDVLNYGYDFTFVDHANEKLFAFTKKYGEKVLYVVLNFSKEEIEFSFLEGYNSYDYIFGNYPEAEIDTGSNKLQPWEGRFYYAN

[1] = substrate: CO[C@H]1O[C@H](CO)[C@@H](O)[C@H](O)[C@H]1O; experiment: glucose oxidase/peroxidase coupled glucose release; assay type: biochemical, Saccharomyces cerevisiae; details: Michaelis-Menten or Hill fit

Q: With `OC[C@H]1O[C@H](OC[C@H]2OC(O)[C@H](O)[C@@H](O)[C@@H]2O)[C@H](O)[C@@H](O)[C@@H]1O` (stereo partly shown) [isomaltose] as the molecule, how does the relative activity (Ima5) read?
A: relative enzyme activity in crude extracts derived from a yeast strain overexpressing IMA5

Q: `OC[C@H]1O[C@H](O[C@H]2[C@H](O)[C@@H](O)C(O)O[C@@H]2CO)[C@H](O)[C@@H](O)[C@@H]1O` (stereo partly shown) [maltose] was tested. Which Km (K. lactis [GI: 50312678]) did it give?
A: one of the paralogs retains the broad specificity of ancMalS

B1: Ima1 (Saccharomyces cerevisiae S288C) (protein)
chain: TISSAHPETEPKWWKEATFYQIYPASFKDSNDDGWGDMKGIASKLEYIKELGADAIWISPFYDSPQDDMGYDIANYEKVWPTYGTNEDCFALIEKTHKLGMKFITDLVINHCSSEHEWFKESRSSKTNPKRDWFFWRPPKGYDAEGKPIPPNNWKSYFGGSAWTFDEKTQEFYLRLFCSTQPDLNWENEDCRKAIYESAVGYWLDHGVDGFRIDVGSLYSKVVGLPDAPVVDKNSTWQSSDPYTLNGPRIHEFHQEMNQFIRNRVKDGREIMTVGEMQHASDETKRLYTSASRHELSELFNFSHTDVGTSPLFRYNLVPFELKDWKIALAELFRYINGTDCWSTIYLENHDQPRSITRFGDDSPKNRVISGKLLSVLLSALTGTLYVYQGQELGQINFKNWPVEKYEDVEIRNNYNAIKEEHGENSEEMKKFLEAIALISRDHARTPMQWSREEPNAGFSGPSAKPWFYLNDSFREGINVEDEIKDPNSVLNFWKEALKFRKAHKDITVYGYDFEFIDLDNKKLFSFTKKYNNKTLFAALNFSSDATDFKIPNDDSSFKLEFGNYPKKEVDASSRTLKPWEGRIYISE
notes: purified present-day enzyme; expression details in Text S1
Q: With B1 as the molecule, how does the Km [1] read?
A: 16.40 ± 0.73 mM

Q: What about the kcat [1] of the same molecule?
A: 0.2688 ± 0.00167 s⁻¹
